Laboratory results as given in PubChem BioAssay AID2765 (Broad Institute, 2010).
pEC50: −log10 of the molar value. Activity calls are given as the source filed them.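 How the source made its calls: active means half-maximal concentration for the rise in caspase light signal at or below ten times the top tested dose; inconclusive means flat fit between 30% and 70% activity, or unreliable curve fit; inactive means the rest.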

Tested on: MEF A1-2A-BIM cells, caspase 3/7 luminescence, 3 h
Experiment: caspase activation in A1-2A-BIM MEF cells, dose response, A1 inhibitor project, cell-based, luminescence, retest (AID 2765)

| Compound | EC50 | pEC50 |
| --- | --- | --- |
| O=C(CCC(=O)N1CCN(c2ccccc2F)CC1)N1CCN(c2ccccc2)CC1 | > 35 µM (inactive) | – |
| O=C(CN(C(=O)CCC(=O)Nc1nccs1)c1cccc(F)c1)NCc1ccccc1 | > 35 µM (inactive) | – |
| COC(=O)c1ccc(NC(=O)C2CC(=O)N(c3ccc(C)cc3)C2)cc1 (stereo not given) | > 35 µM (inactive) | – |
| COc1ccc(OC)c2[nH]c(C(=O)N3CCC(C(=O)O)CC3)cc12 | > 35 µM (inactive) | – |
| COc1cc(CN2CCCC(C(=O)Nc3ccccc3Oc3cccnc3)C2)ccc1F (stereo not given) | > 35 µM (inactive) | – |
| CS(=O)(=O)c1sc(C#N)c2c1C(=O)CC(c1ccccc1)C2 (stereo not given) | > 35 µM (inactive) | – |
| Cc1cc(C)cc(COn2ccnc2)c1 | > 35 µM (inactive) | – |
| COCc1cc(C)nc(SCC(=O)Nc2ccc3c(c2)OCO3)c1C#N | > 35 µM (inactive) | – |
| O=C(CN1CCN(Cc2ccccc2)CC1)Nc1ccc(Br)cc1 | > 35 µM (inactive) | – |
| CC1CCc2nn(CC(=O)NCCCN3CCCC3=O)cc2C1 (stereo not given) | > 35 µM (inactive) | – |
| Cc1cccc(C)c1NC(=O)CSc1nc(C)c(CC(=O)c2ccc(Br)cc2)c(C)c1C#N | – | 4.52 |
| CCOc1ccc(N2C(=O)CN=C2Nc2ccccc2F)cc1 | > 35 µM (inactive) | – |
| Cc1ccc(/C=C/C(=O)c2ccc([N+](=O)[O-])o2)cc1 | > 35 µM (inactive) | – |
| O=C(Nc1ccc2oc(-c3ccccc3)nc2c1)c1ccccc1F | > 35 µM (inactive) | – |
| CCS(=O)(=O)c1ncc(Cl)c(C(=O)Nc2ccc(S(=O)(=O)N3CCC(C)CC3)cc2)n1 | > 35 µM (inactive) | – |
| COc1ccc(S(=O)(=O)N(CC(=O)NCCSc2ccccn2)c2ccccc2)cc1 | > 35 µM (inactive) | – |
| CC1=NNC(=O)/C1=C\c1cn(-c2ccccc2)nc1-c1ccccc1 | – | 4.93 |
| Cc1sc(NC(=O)CSC2=NCCS2)nc1-c1ccccc1 | > 35 µM (inactive) | – |
| O=C(O)CCN1CCc2ccccc2C1c1ccncc1 (stereo not given) | > 35 µM (inactive) | – |
| CCN(C(=O)CCN1C(=O)c2ccccc2S1(=O)=O)c1ccccc1 | > 35 µM (inactive) | – |
| CC(=O)Nc1ccc(NC(=O)c2cc(C)nn2-c2ccccc2)cc1 | > 35 µM (inactive) | – |
| Cc1ccc(C(=O)N/C(=C\c2sccc2C)C(=O)NCCCN2CCOCC2)cc1 | > 35 µM (inactive) | – |
| Cc1cccc(/C=C/C(=O)c2ccc([N+](=O)[O-])o2)c1 | > 35 µM (inactive) | – |
| Cc1ccc2c(c1)C(=O)C(=O)N2Cc1ccc(Br)cc1 | > 35 µM (inactive) | – |

| Compound | EC50 | pEC50 |
| --- | --- | --- |
| CC1(C)OC(=O)C(=Cc2ccc(-c3ccc(S(N)(=O)=O)cc3)o2)C(=O)O1 | > 35 µM (inactive) | – |
| COc1ccc2nc(SCC(=O)N3CCN(c4ccc(F)cc4)CC3)c(C#N)cc2c1 | > 35 µM (inactive) | – |
| CC(Oc1ccc(-c2nccc(-c3ccccn3)n2)cc1)C(=O)NN (stereo not given) | > 35 µM (inactive) | – |
| c1ccc(Cc2nn3c(Cn4nnc5ccccc54)nnc3s2)cc1 | > 35 µM (inactive) | – |
| COc1cc(NS(=O)(=O)c2cc(C(=O)NCCc3ccccn3)ccc2OC)cc(OC)c1 | > 35 µM (inactive) | – |
| CC1=C(C(N)=O)C(c2ccc3c(c2)OCO3)n2nc(-c3cccc(C)c3)nc2N1 (stereo not given) | > 35 µM (inactive) | – |
| Cc1ccc(NC(=O)c2ccc(N/N=C/c3cccc(O)c3)c([N+](=O)[O-])c2)cc1 | – | 4.67 |
| COc1cccc(CN(CC(=O)NC2CCCC2)C(=O)c2csnn2)c1 | > 35 µM (inactive) | – |
| O=[N+]([O-])c1ccc(CP(=O)(c2ccccc2)c2ccccc2)cc1 | > 35 µM (inactive) | – |
| CCOc1cc2[nH]c(=S)n(CCCOC)c(=O)c2cc1OCC | > 35 µM (inactive) | – |
| CC(C)CC(=O)Nc1ccc2c(c1)OCO2 | > 35 µM (inactive) | – |
| O=C(CCCCl)NC(=S)Nc1ccc(CN2CCOCC2)cc1 | > 35 µM (inactive) | – |
| CCN1CCN(c2nc3ccccc3nc2NS(=O)(=O)c2ccc(NC(C)=O)cc2)CC1 | > 35 µM (inactive) | – |
| Cc1ccc(C(=O)Nc2ccc(N3CCOCC3)nc2N2CCOCC2)cc1 | > 35 µM (inactive) | – |
| O=C(CSc1nccc(=O)[nH]1)Nc1ccccc1Sc1ccccc1 | > 35 µM (inactive) | – |
| O=C(CCC1N=C2c3ccccc3N=C(SCC(=O)NCC3CCCO3)N2C1=O)NCc1ccc(F)cc1 (stereo not given) | > 35 µM (inactive) | – |
| CC(=O)Nc1ccc(SCCN2CC[C@@H](C(C)(C)C)CCC2=O)cc1 | > 35 µM (inactive) | – |
| CN(CC(O)COC(c1ccccc1)c1ccccc1)C1CCCCC1 (stereo not given) | > 35 µM (inactive) | – |
| COc1ccc(C(=O)Nc2cccc3c2CCCC3)cc1 | > 35 µM (inactive) | – |
| CN1CCc2cccc(Cl)c2CC1 | > 35 µM (inactive) | – |
| CC(Sc1nc(-c2ccccc2)cc(C(F)(F)F)n1)C(=O)N1CCCCC1 (stereo not given) | > 35 µM (inactive) | – |
| Cc1ccc2c(c1)C(=O)C(=O)N2Cc1ccc(Cl)cc1 | > 35 µM (inactive) | – |
| CCOC(=O)c1c(C)[nH]c(C)c1C(=O)CSc1nc2ccccc2n1CCOC | > 35 µM (inactive) | – |
| C[C@@]12C(=O)OC(=O)[C@]1(C)C1CCC2O1 | > 35 µM (inactive) | – |

| Compound | EC50 | pEC50 |
| --- | --- | --- |
| CCOc1ccccc1OCCC(=O)N1CCN(S(=O)(=O)c2ccccc2[N+](=O)[O-])CC1 | > 35 µM (inactive) | – |
| Cc1ccc(C(=O)Nc2nnc(C3=COCCO3)o2)cc1C | > 35 µM (inactive) | – |
| O=C(CC1CC2CCC1C2)N1CCN(S(=O)(=O)c2ccccc2C(F)(F)F)CC1 (stereo not given) | > 35 µM (inactive) | – |
| COC(=O)c1ccc2c(c1)C(C)(C)C(/C=C/c1ccccc1O)=[N+]2C | – | 4.90 |
| O=C(Cc1cccc([N+](=O)[O-])c1)Nc1cccc(C(=O)N2CCOCC2)c1 | > 35 µM (inactive) | – |
| CCOC(=O)c1cc(CC)sc1NC(=O)C1CC(=O)NN1Cc1ccccc1 (stereo not given) | > 35 µM (inactive) | – |
| Cc1ccc(NC(=O)CSc2nc3ccc(Nc4nc(N5CCOCC5)nc(N5CCOCC5)n4)cc3s2)cc1 | – | 4.83 |
| Cc1ccc(C(O)(CCN2CCCCC2)c2ccccc2)cc1 (stereo not given) | > 35 µM (inactive) | – |
| CSc1ccccc1NC(=O)CCn1c(=O)sc2ccccc21 | > 35 µM (inactive) | – |
| CCOC(=O)c1ccc(NS(=O)(=O)c2ccc3c(c2)CCCN3C(C)=O)cc1 | > 35 µM (inactive) | – |
| Cc1c(C(=O)O)cccc1N1C(=O)Nc2ccccc2N1O | > 35 µM (inactive) | – |
| COC(=O)C1=C(c2ccc(F)cc2F)C[C@@H]2CC[C@H]1N2C(=O)N1CCC(O)CC1 | > 35 µM (inactive) | – |
| Cc1cc(C(=O)Nc2cccc3c2O[C@@H](CN(C)S(=O)(=O)c2ccccc2)[C@H](C)CN([C@@H](C)CO)C3=O)n(C)n1 | > 35 µM (inactive) | – |
| COc1ccc(CNC(=O)CN(Cc2ccc(Cl)cc2)S(=O)(=O)c2ccccc2)cc1 | > 35 µM (inactive) | – |
| O=C(c1cc(-c2ccccn2)nc2ccc(Cl)cc12)N1CCN(CCc2ccccc2)CC1 | > 35 µM (inactive) | – |
| O=C(/C=C/c1ccc(Cl)cc1)c1ccc([N+](=O)[O-])o1 | > 35 µM (inactive) | – |
| Cc1noc(NS(=O)(=O)c2ccc(NC(=O)c3ccccc3NS(=O)(=O)c3ccc(F)cc3)cc2)c1C | > 35 µM (inactive) | – |
| Cc1nn(Cc2c(Cl)cccc2Cl)c(C)c1NC(=O)c1cn(-c2ccccc2)nc1-c1ccccc1 | – | 4.82 |
| CCc1cc(-c2[nH]ncc2-c2ccc(OC)cc2)c(O)cc1O | > 35 µM (inactive) | – |
| Cn1ccc(=NC=C(C#N)C#N)c2ccccc21 | > 35 µM (inactive) | – |
| CCOC(=O)COc1ccccc1/C=C\[N+](=O)[O-] | – | 5.23 |
| CCOC(=O)C1=C(c2ccccc2)O/C(=C(/C#N)C(F)(F)F)S1 | > 35 µM (inactive) | – |
